Measurements as given in patent US11440884B2, “Compounds, salts thereof and methods for treatment of diseases” (ACADIA PHARMACEUTICALS INC., priority 2017, dated 2022).
Where two headings read alike, the source gives them in different places.

Molecular target: 5-HT2A receptor (Homo sapiens (Human), UniProt P28223)
Assay: Receptor Selection and Amplification (R-SAT) functional antagonist assay;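 further: Read-out is β-galactosidase marker gene activity with ONPG substrate, measured after five days of growth in 96-well plates holding the test compound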
[1] = R-SAT, transfected NIH3T3 cells, guidance: high affinity pKi≥8.4, moderate affinity pKi≥7.7

Sequence of 5-HT2A receptor (P28223 whole entry): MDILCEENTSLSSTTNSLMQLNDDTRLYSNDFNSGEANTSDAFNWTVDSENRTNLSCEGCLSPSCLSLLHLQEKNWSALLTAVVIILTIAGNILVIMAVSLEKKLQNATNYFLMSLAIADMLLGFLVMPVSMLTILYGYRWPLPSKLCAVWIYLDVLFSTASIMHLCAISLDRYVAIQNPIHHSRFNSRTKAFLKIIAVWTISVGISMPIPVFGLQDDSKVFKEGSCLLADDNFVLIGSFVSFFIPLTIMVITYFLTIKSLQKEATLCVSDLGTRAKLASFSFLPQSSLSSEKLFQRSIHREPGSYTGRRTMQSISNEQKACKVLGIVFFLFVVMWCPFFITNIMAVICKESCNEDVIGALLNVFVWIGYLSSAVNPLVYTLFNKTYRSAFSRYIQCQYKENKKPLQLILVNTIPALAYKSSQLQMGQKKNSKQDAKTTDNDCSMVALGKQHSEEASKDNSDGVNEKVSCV
Experimental: Receptor Selection and Amplification (R-SAT) Assays. […] For large-scale transfections, cells were transfected for 12-16 h, then trypsinized and frozen in DMSO. Frozen cells were later thawed, plated at 10,000-40,000 cells per well of a 96 well plate that contained a compound according to Formula (I). […] With both methods, cells were then grown in a humidified atmosphere with 5% ambient CO2 for five days. Media was then removed from the plates and marker gene activity was measured by the addition of the b-galactosidase substrate o-nitrophenyl b-D-galactopyranoside (ONPG, in PBS with 5% NP-40). […] All data were analyzed using the computer program XLFit (IDBSm).

Structure (SMILES)	Ki	5-HT2a pKi [1]	other results
CC(C)COc1ccc(CCOC(=O)N(Cc2ccc(F)cc2)[C@H]2CCNC[C@H]2F)cc1 (racemic) [9a/9b, 2-[4-(2-methylpropoxy)phenyl]ethyl N-[(4-fluorophenyl)methyl]-N-[(3R,4S)-3-fluoropiperidin-4-yl]carbamate; trifluoroacetic acid (9a) and 2-[4-(2-methylpropoxy)phenyl]ethyl N-[(4-fluorophenyl)methyl]-N-[(3S,4R)-3-fluoropiperidin-4-yl]carbamate; trifluoroacetic acid (9b)]	63.1 nM		
CC(C)COc1ccc(CC(=O)N(Cc2ccc(C(F)(F)F)cc2F)C2CCN(C)CC2)cc1.O=C(O)C(F)(F)F [Compound 69]			5-HT2a pKi: 7.7
CC(C)COc1ccc(COC(=O)N(Cc2ccc(F)cc2Cl)C2CCN(C)CC2)cc1 [Compound 58, [4-(2-methylpropoxy)phenyl]methyl N-[(2-chloro-4-fluorophenyl)methyl]-N-(1-methylpiperidin-4-yl)carbamate]		8.1	
CC(C)Oc1ccc(CC(=O)N(Cc2ccc(F)cc2F)C2CCN(C)CC2)cc1.O=C(O)C(F)(F)F [Compound 19, N-[(2,4-difluorophenyl)methyl]-N-(1-methylpiperidin-4-yl)-2-[4-(propan-2-yloxy)phenyl]acetamide; trifluoroacetic acid]		8.3	
CC(C)COc1ccc(COC(=O)N(Cc2ccc(F)cc2)[C@H]2CCNC[C@H]2F)cc1 (racemic) [5a/5b, [4-(2-methylpropoxy)phenyl]methyl N-[(4-fluorophenyl)methyl]-N-[(3R,4S)-3-fluoropiperidin-4-yl]carbamate (5a) and [4-(2-methylpropoxy)phenyl]methyl N-[(4-fluorophenyl)methyl]-N-[(3S,4R)-3-fluoropiperidin-4-yl]carbamate (5b)]	0.251 nM		
CCN1CCC(N(Cc2ccc(F)cc2F)C(=O)OCc2ccc(OC(C)C)cc2)CC1 [Compound 44, [4-(propan-2-yloxy)phenyl]methyl N-[(2,4-difluorophenyl)methyl]-N-(1-ethylpiperidin-4-yl)carbamate]		9.4	
